# Several values for one entry are separate records, joined by “and”; a condition that tells them apart may be missing. Equal values may be shown once.
# Molecular target: T1, CPV-2 NS1 endonuclease (Canine parvovirus type 2, UniProt P12929)
# T1 construct: hexahistidine (N); hexahistidine (C); made in house; host or cells: E. coli BL21 (De3) pLysS
# Test: FRET nicking assay, inhibition of recombinant CPV-2 NS1 endonuclease
# Format: biochemical, Canine parvovirus type 2 (CPV-2)
# Settings: 50 μM inhibitor, 0.6 μM FRET substrate, 1.25 μg enzyme, 50 mM Tris/HCl pH 7.0, 37°C, 3 min
# Excerpt: The fluorescence resonance energy transfer (FRET) substrate, which was composed of an oligonucleotide 5¢-TAA CCT TAC CAT AAG TA↓T CAA TCT GTC TTT-3¢ labeled with carboxyfluorescein (FAM) at the 5¢-terminus and black hole quencher 1 (BHQ1) at the 3¢-terminus as the energy transfer pair, was designed and synthesized by Bioneer Corp. (Korea) (Fig. S1).
# cDNA of the CPV-2 NS1 endonuclease gene was synthesized after codon optimization (Genscript, USA) based on the N-terminal amino acid sequence (amino acids 1–277 of the DNA-binding region) of CPV-2 NS1 endonuclease (GenBank Accession No. AAV36764.1) (Fig. S2). The CPV-2 NS1 endonuclease gene was imbedded into the pET-28a (+) vector (Novagen, Germany) with hexahistidine tags at the N- and C-termini. The plasmids were transformed into E. coli BL21 (De3) pLysS (Invitrogen, USA) for expression. The transformed cells were cultured in 1 L of LB containing 30 μg/ml kanamycin at 37°C until the OD600 reached 0.6. Next, protein expression was induced with 1 mM isopropyl β-D-1-thiogalactopyranoside (IPTG) at 24°C for 20 h. Cells were harvested by centrifugation at 12,000 ×g for 25 min and 4°C. The pellet was resuspended in 50 ml 50 mM Tris-HCl buffer (pH 7.0) containing 300 mM NaCl and disrupted by sonication. After centrifugation at 12,000 ×g for 30 min and 4°C, the supernatant was applied to a Ni-NTA agarose column (Qiagen, Germany) and washed with 50 mM Tris-HCl buffer (pH 8.0) containing 300 mM NaCl and 20 mM imidazole. CPV-2 NS1 endonuclease was eluted with 50 mM Tris-HCl buffer (pH 8.0) containing 300 mM NaCl, and 250 mM imidazole, and dialyzed against 50 mM Tris-HCl (pH 7.0) containing 300 mM NaCl at 4°C overnight. The purified protein was stored at −20°C until required.
# CPV-2 NS1 endonuclease activity was measured using an FRET substrate as described above. The reaction mixture was composed of 1.25 μg endonuclease and 0.6 μM FRET in 50 mM Tris-HCl buffer (pH 7.0). The reaction was run at 37°C with continuous monitoring of fluorescence for 10 min. Relative fluorescence units (RFUs) were measured using a SpectraMax M3 fluorescence plate reader (Molecular Devices, USA) with an excitation wavelength of 495 nm and an emission wavelength of 517 nm.
# Thirty-one compounds, extracted sesame cake, turmeric, and yerba mate were tested for inhibitory effects against CPV-2 NS1 endonuclease. For screening, thirty-one compounds, turmeric, and yerba mate were dissolved in dimethyl sulfoxide (DMSO) to 5 mM or 10 mg/ml as stock solutions. Sesame cake extract (10 mg/ml) was solubilized in water. The reaction was initiated by adding 0.6 μM FRET substrate to a mixture of 50 μM compound and 1.25 μg endonuclease in 50 mM Tris-HCl buffer (pH 7.0) containing 300 mM NaCl. The reaction was run at 37°C for 3 min using a SpectraMax M3 fluorescence plate reader with an excitation wavelength of 495 nm and emission wavelength of 517 nm. Inhibitory activity was calculated using the following equation:
# Inhibition activity (%) 100-[(S-S0)÷(C-C0)]×100
# where C is RFU of the control (enzyme, buffer, and substrate) after a 3 min reaction, C0 is the RFU of the control at 0 min, S is the RFU of the sample (enzyme, buffer, inhibitor, and substrate) after 3 min, and S0 is the RFU of the sample at 0 min.
# We determined the 50% inhibitory concentrations (IC50) of the six natural compounds, extracted turmeric, yerba mate, and sesame cake relative to the inhibitor-free control. The IC50 values of curcumin, and extracted sesame cake were calculated using a four-parameter logistic curve (4PL) using Prism v. 8 software (GraphPad Software Inc., USA). […] 8 software.
# T1 sequence (P12929 1-277): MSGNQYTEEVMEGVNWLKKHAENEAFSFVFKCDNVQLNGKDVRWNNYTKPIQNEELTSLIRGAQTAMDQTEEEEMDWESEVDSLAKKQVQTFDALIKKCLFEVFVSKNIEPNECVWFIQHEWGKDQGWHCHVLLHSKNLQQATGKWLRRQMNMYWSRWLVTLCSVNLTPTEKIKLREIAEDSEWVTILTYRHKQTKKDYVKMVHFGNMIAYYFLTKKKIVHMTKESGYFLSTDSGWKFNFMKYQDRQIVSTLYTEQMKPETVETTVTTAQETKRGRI
row,SMILES,Inhibition (%) at 50 μM
1,O=c1c(-c2ccc(O)cc2)coc2cc(O)cc(O)c12 [Genistein],45 ± 14%
2,c1cc2c(cc1O[C@H]1OC[C@H]3[C@@H]1CO[C@@H]3c1ccc3c(c1)OCO3)OCO2 [Sesamolin],did not inhibit
3,COc1cc(/C=C/C(=O)O)ccc1O [Ferulic acid],37 ± 5%
4,CC1(C)CC[C@]2(C(=O)O)CC[C@]3(C)C(=CC[C@@H]4[C@@]5(C)CC[C@H](O)C(C)(C)[C@@H]5CC[C@]43C)[C@@H]2C1 [Oleanolic acid],51 ± 7%
5,C[C@H]1[C@H](C)CC[C@]2(C(=O)O)CC[C@]3(C)C(=CC[C@@H]4[C@@]5(C)CC[C@H](O)C(C)(C)[C@@H]5CC[C@]43C)[C@H]12 [Ursolic acid],29 ± 5%
6,O=c1c(O)c(-c2ccc(O)c(O)c2)oc2cc(O)cc(O)c12 [Quercetin],51 ± 3%
7,Cn1c(=O)c2c(ncn2C)n(C)c1=O [Caffeine],7 ± 7%
8,c1cc2c(cc1[C@H]1OC[C@H]3[C@@H]1CO[C@@H]3c1ccc3c(c1)OCO3)OCO2 [(+)-Sesamin],did not inhibit
9,O=c1c(O)c(-c2ccc(O)c(O)c2)oc2cc(O)ccc12 [Fisetin],did not inhibit
10,"O=C(O[C@@H]1Cc2c(O)cc(O)cc2O[C@@H]1c1cc(O)c(O)c(O)c1)c1cc(O)c(O)c(O)c1 [EGCG, epigallocatechin gallate]",49 ± 6%
11,Oc1ccc(/C=C/c2cc(O)cc(O)c2)cc1 [Resveratrol],did not inhibit
12,C[N+](C)(C)C[C@H](O)CC(=O)[O-] [L-carnitine],< 50% and 29 ± 2%
13,O=c1c(-c2ccc(O)cc2)coc2cc(O)ccc12 [Daidzein],22 ± 12%
14,O=C(/C=C/c1ccc(O)cc1)CC(=O)/C=C/c1ccc(O)cc1 [Bisdemethoxycurcumin],100%

# Same assay, conditions: 50 μM inhibitor, 0.6 μM FRET substrate, 1.25 μg enzyme, 50 mM Tris/HCl pH 7.0, 37°C, 3 min; listed as caffeine
row,SMILES,Inhibition (%) at 50 μM [%]
1,Cn1c(=O)c2c(ncn2C)n(C)c1=O [Caffeine],< 50

# Same assay, conditions: 50 μM inhibitor, 0.6 μM FRET substrate, 1.25 μg enzyme, 50 mM Tris/HCl pH 7.0, 37°C, 3 min; listed as daidzein
row,SMILES,Inhibition (%) at 50 μM [%]
1,O=c1c(-c2ccc(O)cc2)coc2cc(O)ccc12 [Daidzein],< 50

# Same assay, conditions: 50 μM inhibitor, 0.6 μM FRET substrate, 1.25 μg enzyme, 50 mM Tris/HCl pH 7.0, 37°C, 3 min; listed as epigallocatechin gallate
row,SMILES,Inhibition (%) at 50 μM [%]
1,"O=C(O[C@@H]1Cc2c(O)cc(O)cc2O[C@@H]1c1cc(O)c(O)c(O)c1)c1cc(O)c(O)c(O)c1 [EGCG, epigallocatechin gallate]",< 50

# Same assay, conditions: 50 μM inhibitor, 0.6 μM FRET substrate, 1.25 μg enzyme, 50 mM Tris/HCl pH 7.0, 37°C, 3 min; listed as ferulic acid
row,SMILES,Inhibition (%) at 50 μM [%]
1,COc1cc(/C=C/C(=O)O)ccc1O [Ferulic acid],< 50

# Same assay, conditions: 50 μM inhibitor, 0.6 μM FRET substrate, 1.25 μg enzyme, 50 mM Tris/HCl pH 7.0, 37°C, 3 min; listed as oleanolic acid
row,SMILES,Inhibition (%) at 50 μM [%]
1,CC1(C)CC[C@]2(C(=O)O)CC[C@]3(C)C(=CC[C@@H]4[C@@]5(C)CC[C@H](O)C(C)(C)[C@@H]5CC[C@]43C)[C@@H]2C1 [Oleanolic acid],> 29

# Same assay, conditions: 50 μM inhibitor, 0.6 μM FRET substrate, 1.25 μg enzyme, 50 mM Tris/HCl pH 7.0, 37°C, 3 min; listed as quercetin
row,SMILES,Inhibition (%) at 50 μM [%]
1,O=c1c(O)c(-c2ccc(O)c(O)c2)oc2cc(O)cc(O)c12 [Quercetin],> 29

# Same assay, conditions: 50 μM inhibitor, 0.6 μM FRET substrate, 1.25 μg enzyme, 50 mM Tris/HCl pH 7.0, 37°C, 3 min; listed as ursolic acid
row,SMILES,Inhibition (%) at 50 μM
1,C[C@H]1[C@H](C)CC[C@]2(C(=O)O)CC[C@]3(C)C(=CC[C@@H]4[C@@]5(C)CC[C@H](O)C(C)(C)[C@@H]5CC[C@]43C)[C@H]12 [Ursolic acid],< 50% and > 29%

# Same assay, conditions: pH 7, 50 μM inhibitor, 0.6 μM FRET substrate, 1.25 μg enzyme, 50 mM Tris/HCl pH 7.0, 37°C, 3 min; read-out: Inhibition (%) at 50 μM
row,SMILES,inhibition at 50 µM [%]
1,c1cc2c(cc1O[C@H]1OC[C@H]3[C@@H]1CO[C@@H]3c1ccc3c(c1)OCO3)OCO2 [Sesamolin],0
2,c1cc2c(cc1[C@H]1OC[C@H]3[C@@H]1CO[C@@H]3c1ccc3c(c1)OCO3)OCO2 [(+)-Sesamin],0
3,O=c1c(O)c(-c2ccc(O)c(O)c2)oc2cc(O)ccc12 [Fisetin],0
4,Oc1ccc(/C=C/c2cc(O)cc(O)c2)cc1 [Resveratrol],0

# Same assay, conditions: pH 7, read-out: Inhibition (%) at 50 μM, 50 μM inhibitor, 0.6 μM FRET substrate, 1.25 μg enzyme, 50 mM Tris/HCl pH 7.0, 37°C, 3 min
row,SMILES,inhibition at 50 µM [%]
1,O=c1c(-c2ccc(O)cc2)coc2cc(O)cc(O)c12 [Genistein],< 50
2,O=C(/C=C/c1ccc(O)cc1)CC(=O)/C=C/c1ccc(O)cc1 [Bisdemethoxycurcumin],> 95

# Same assay, conditions: single compounds; 0.6 μM FRET substrate, 1.25 μg endonuclease, pH 7.0, 300 mM NaCl, 37°C, 3 min; curcumin by 4PL, others by linear regression
row,SMILES,IC50 [nM]
1,O=C(/C=C/c1ccc(O)cc1)CC(=O)/C=C/c1ccc(O)cc1 [Bisdemethoxycurcumin],450 ± 50

# — paper PMC10331946, “Characterization of Natural Compounds as Inhibitors of NS1 Endonuclease from Canine Parvovirus Type 2” (Journal of Microbiology and Biotechnology, 2023)
